Data published in BindingDB's records for doi:10.1016/j.ejmech.2023.115410 (Jawaharlal Nehru University, 2023).
pIC50: −log10 of the molar value.

Key:
[1] = Inhibition of […] Influenza A Taiwan 3446 2002(H3N2) neuraminidase infected in dog MDCK cells using MU-NANA as substrate assessed as reduction in viral replication incubated for 72 hrs by spectrofluorometric analysis
[2] = Inhibition of avian Influenza A virus SN 33 (H1N1) neuraminidase infected in dog MDCK cells using MU-NANA as substrate assessed as reduction in viral replication incubated for 72 hrs by spectrofluorometric analysis

CC(=O)N[C@H]1[C@H]([C@H](O)[C@H](O)CO)OC(C(=O)O)=C[C@@H]1NC(=N)NC(=O)CSc1ccc2ccccc2c1
pIC50 [1]: 7.60 | pIC50 [2]: 7.70

CC(=O)N[C@H]1[C@H]([C@H](O)[C@H](O)CO)OC(C(=O)O)=C[C@@H]1NC(=N)NC(=O)CCc1ccc2ccccc2c1
pIC50 [1]: 7.17 | pIC50 [2]: 7.12
